Source: patent publication US10759994B2, “Luminogenic transition metal-based pyridyl complex and its use” (City University of Hong Kong, priority 2016, dated 2020)

Experiments:
HeLa cells = type: cell-based; details: BCN-C10 pretreatment (200 μM, 1 h), complex 40 μM
Source text: The results particularly highlight the potential of the luminogenic transition metal-based polypyridyl complexes of the present invention for bioorthogonal labeling. […] Importantly, although the cellular uptake of complex 2b was substantially higher, it was much less cytotoxic than complex 4b toward the pretreated cells. […] The results also highlight the potential therapeutic use of intracellular bioorthogonal coupling reactions in activating the cytotoxicity of metallo drugs.
For determining the cytotoxicity of complexes 1 b 5b, HeLa cells were seeded in a 96-well flat-bottomed microplate (about 10,000 cells well^−1) in growth medium (100 μL) and incubated at 37° C. under a 5% CO2 atmosphere for 24 h. The cells were then incubated in either blank medium or growth medium/DMSO (99:1, v/v) (100 μL) containing BCN-C10 (200 μM) in the dark at 37° C. under a 5% CO2 atmosphere for 1 h. The medium was then removed, the cell layer was washed with PBS, and further incubated in growth medium/DMSO (99:1, v/v) (100 μL) containing the ruthenium(II) complexes (40 μM) in the dark at 37° C. under a 5% CO2 atmosphere for 6, 12, or 24 h. Wells containing untreated cells were used as blank control. The microplate was incubated at 37° C. under a 5% CO2 atmosphere for another 4 h. The growth medium was then removed, and DMSO (200 μL) was added to each well. The microplate was further incubated for 15 min. The absorbance of the solutions at 570 nm was measured with a SPECTRAmax 340 microplate reader.

[1] = aerated aqueous solution, λex=455 nm; cited from earlier work
[2] = SPANC reaction kinetics with BCN—OH by UV/Vis absorption spectroscopy; type: physicochemical; details: reaction with BCN—OH in MeOH at 298 K
Protocol: The reactivity of the iridium(III) and ruthenium(II) pyridyl complexes toward a strained alkyne derivative BCN—OH in MeOH at 298 K was studied. The second-order rate constants (k2) of the strain-promoted alkyne-nitrone cycloaddition (SPANC) reaction of complexes 1a-5b are shown in Tables 3 and 4, respectively. The k2 values of the iridium(III) complexes 1a, 2a and 3a and the ruthenium(II) complexes 1b, 2b, 3b, 4b, and 5b were determined to be 0.116-0.238 and 0.078-3.06 M^−1 s^−1, respectively, which are about 1.95-76.5 times that of the free ligand bpy-nitrone-Me (k2=0.040 M^−1 s^−1). This is attributed to the electron-withdrawing effects of the positively-charged metal centers. […] The accelerated reaction kinetics is assumed to originate from the presence of the more electron-withdrawing phenyl ring at the N-position of the nitrone moiety. Thus, the accelerated reaction kinetics render complexes 1a-5b highly advantageous bioorthogonal probes for biomolecules modified with a strained alkyne moiety.
More specifically, the SPANC reaction kinetics of complexes 1a 5b was studied by UV/Ms absorption spectroscopy. For the ligand bpy-nitrone-Me and the iridium(III) complexes 1a-3a, the k2 values were measured under pseudo first order conditions with a 25- to 100-fold excess of BCN—OH in MeOH at 298 K. The reaction process was followed by monitoring the exponential decay of the absorbance at 306-342 nm upon addition of BCN—OH. The final concentrations of the nitrone compounds were 10 μM and those of BCN—OH ranged from 0.25 to 1.0 mM. For the ruthenium(II) complexes 1b-5b, the k2 values were determined under pseudo first order conditions with a 50- to 200-fold excess of BCN—OH in MeOH at 298 K. The reaction process was monitored by following the exponential decay of the absorbance at 329 nm. The final concentrations of the complexes were 10 μM and those of BCN—OH ranged from 0.5 to 2.0 mM. The data were fitted to a single-exponential equation to give the observed rate constants (kobs), which were plotted against the concentrations of BCN—OH to obtain the k2 from the slope of the plots.

## Cc1ccnc(-c2cc(/C=[N+](/C)[O-])ccn2)c1.F[P-](F)(F)(F)(F)F.F[P-](F)(F)(F)(F)F.[Ru+2].c1ccc(-c2ccccn2)nc1.c1ccc(-c2ccccn2)nc1 [Complex 1b, [Ru(bpy)2(bpy-nitrone-Me)](PF6)2]
HeLa cells
  Cell viability with BCN-C10 pretreatment: maintained good biocompatibility

## [Cl][Ru][Cl].c1ccc(-c2ccccn2)nc1.c1ccc(-c2ccccn2)nc1.c1ccc(-c2ccccn2)nc1 [[Ru(bpy)3]Cl2]
[1]
  ϕem of standard solution: 0.028

## Cc1ccnc(-c2cc(C=[N+](C)[O-])ccn2)c1 [bpy-nitrone-Me, 4-((Methyl(oxido)imino)methyl)-4′-methyl-2,2′-bipyridine]
[2]
  Second-order rate constants (k2): 0.040 M⁻¹ s⁻¹
